Experiments:
[1] = species: Homo sapiens; assay: Selectivity ratio of Ki for displacement of [3H]-(R)-(+)-7-OH-DPAT from recombinant human D2L receptor expressed in HEK293 cell membranes to Ki for displacement of [3H]-(R)-(+)-7-OH-DPAT from recombinant human D3 receptor expressed in HEK293 cell membranes
[2] = molecular target: D(2) dopamine receptor (Homo sapiens, UniProt P14416); assay: Displacement of [3H]-(R)-(+)-7-OH-DPAT from recombinant human D2L receptor expressed in HEK293 cell membranes measured after 90 mins by microbeta scintillation counting analysis
[3] = molecular target: D(3) dopamine receptor (Homo sapiens, UniProt P35462); assay: Displacement of [3H]-(R)-(+)-7-OH-DPAT from recombinant human D3 receptor expressed in HEK293 cell membranes measured after 90 mins by microbeta scintillation counting analysis
[4] = species: Homo sapiens; assay: Selectivity ratio of Ki for displacement of [3H]-(R)-(+)-7-OH-DPAT from recombinant human D4.4 receptor expressed in HEK293 cell membranes to Ki for displacement of [3H]-(R)-(+)-7-OH-DPAT from recombinant human D3 receptor expressed in HEK293 cell membranes
[5] = molecular target: T1, D(4) dopamine receptor (Homo sapiens, UniProt P21917); assay: Displacement of [3H]-(R)-(+)-7-OH-DPAT from recombinant human D4.4 receptor expressed in HEK293 cell membranes measured after 90 mins by microbeta scintillation counting analysis
T1 sequence (P21917 whole entry): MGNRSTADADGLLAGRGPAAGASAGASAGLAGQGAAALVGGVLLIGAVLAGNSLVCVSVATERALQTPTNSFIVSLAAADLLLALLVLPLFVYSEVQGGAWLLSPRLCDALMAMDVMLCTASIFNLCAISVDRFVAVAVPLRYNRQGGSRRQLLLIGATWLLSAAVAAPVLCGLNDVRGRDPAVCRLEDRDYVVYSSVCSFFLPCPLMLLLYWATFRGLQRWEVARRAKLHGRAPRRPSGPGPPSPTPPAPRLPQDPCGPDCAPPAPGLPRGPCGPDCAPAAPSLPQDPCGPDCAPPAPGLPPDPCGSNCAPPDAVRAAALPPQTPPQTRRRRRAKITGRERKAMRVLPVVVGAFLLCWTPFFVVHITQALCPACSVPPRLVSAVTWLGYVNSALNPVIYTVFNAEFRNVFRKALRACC

[6] = Drug level in rat liver microsomes treated with trans-N-(2-(2-(((2S,5S)-2-(6-Aminopyridin-3-yl)-5-methylmorpholino)methyl)cyclopropyl)ethyl)-1H-indole-2-carboxamide assessed as metabolite formation at 10 uM measured after 60 mins in presence of NADPH by LC-HRMS analysis; assay type: ADME, Microsome

Sequence of D(2) dopamine receptor (P14416 whole entry): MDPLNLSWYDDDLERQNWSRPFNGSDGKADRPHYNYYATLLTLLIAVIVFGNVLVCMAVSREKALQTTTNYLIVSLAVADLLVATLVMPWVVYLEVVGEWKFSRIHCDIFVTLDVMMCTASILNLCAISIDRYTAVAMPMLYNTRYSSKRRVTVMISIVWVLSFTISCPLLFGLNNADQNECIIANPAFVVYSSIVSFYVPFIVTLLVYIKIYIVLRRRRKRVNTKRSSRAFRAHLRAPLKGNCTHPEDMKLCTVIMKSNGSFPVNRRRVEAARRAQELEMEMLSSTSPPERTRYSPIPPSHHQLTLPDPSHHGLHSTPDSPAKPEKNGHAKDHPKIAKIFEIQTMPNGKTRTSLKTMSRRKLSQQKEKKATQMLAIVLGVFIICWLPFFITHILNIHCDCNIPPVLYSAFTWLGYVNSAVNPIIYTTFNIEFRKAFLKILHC
Sequence of D(3) dopamine receptor (P35462 whole entry): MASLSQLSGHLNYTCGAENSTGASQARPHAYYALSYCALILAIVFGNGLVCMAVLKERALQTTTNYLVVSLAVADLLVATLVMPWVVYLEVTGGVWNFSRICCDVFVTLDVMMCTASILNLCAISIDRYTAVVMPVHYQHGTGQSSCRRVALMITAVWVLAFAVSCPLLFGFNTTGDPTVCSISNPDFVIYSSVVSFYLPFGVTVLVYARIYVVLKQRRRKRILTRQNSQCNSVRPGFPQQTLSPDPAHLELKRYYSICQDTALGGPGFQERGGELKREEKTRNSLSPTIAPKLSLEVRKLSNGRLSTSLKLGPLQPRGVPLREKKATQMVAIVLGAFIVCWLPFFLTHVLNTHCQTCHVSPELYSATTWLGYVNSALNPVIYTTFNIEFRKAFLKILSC

| SMILES | Ratio Ki [1] | other results |
| --- | --- | --- |
| O=C(NCCCCNC1COc2ccc(O)cc2C1=O)c1cc2ccccc2[nH]1 (stereo in doubt; 19b) | 0.808 | – |
| C[C@H]1CO[C@H](c2ccc(N)nc2)CN1CC1CC1CNC(=O)c1cc2ccccc2[nH]1 (stereo in doubt; form 1) | 0.431 | – |
| C[C@H]1CO[C@@H](c2ccc(N)nc2)CN1C/C=C/COc1ccc2c(c1)NC(=O)CC2 | 0.297 | – |
| CCCN1CCO[C@@H]2c3cc(OCCCCNC(=O)c4cc5ccccc5o4)ccc3OC[C@H]21 | 1.57 | – |
| C[C@H]1CO[C@H](c2ccc(N)nc2)CN1CC1CC1CNC(=O)c1cc2ccccc2[nH]1 (mixture of isomers) [listing 1 of 2 here] | – | Ki [2]: 14.1 µM; Ki [3]: 66.2 µM |
| CCCN1CCO[C@@H]2c3cc(O)ccc3OC[C@H]21 | 12.1 | Ratio Ki [4]: 15.7 |
| CCCN1CCO[C@@H]2c3cc(OCCCCNC(=O)c4ccc5c(c4)Cc4ccccc4-5)ccc3OC[C@H]21 | 8.33 | – |
| C[C@H]1CO[C@H](c2ccc(N)nc2)CN1CC1CC1CNC(=O)c1cc2ccccc2[nH]1 (stereo in doubt; form 2) | 0.235 | – |
| C[C@H]1CO[C@H](c2ccc(N)nc2)CN1C/C=C/COc1ccc2c(c1)NC(=O)CC2 | 0.289 | – |
| CCCN1CCO[C@@H]2c3cc(OCCCCNC(=O)c4ccc5scnc5c4)ccc3OC[C@H]21 | 4.3 | – |
| O=C(NCCCCNC1COc2ccc(O)cc2C1=O)c1cc2ccccc2[nH]1 (stereo in doubt; 19a) | 0.71 | – |
| CCCN(CCC)c1ccc(C2CN(CCC)[C@@H](C)CO2)cn1 (stereo partly specified) | 0.391 | Ki [5]: > 100 µM |
| C[C@H]1CO[C@@H](c2ccc(N)nc2)CN1 | 5.52 | Drug metabolism [6]: Metabolite_Detected |
| CCCN1CCO[C@@H]2c3cc(OCCCCNC(=O)c4cc5cccnc5[nH]4)ccc3OC[C@H]21 | 3.12 | – |
| C[C@H]1CO[C@@H](c2ccc(N)nc2)CN1CC1CC1CNC(=O)c1cc2ccccc2[nH]1 (stereo in doubt; form 2) | 1.75 | – |
| CCc1cc(Cl)c(OC)c(N2CCN(CCCCOc3ccc4c(c3)NC(=O)CC4)CC2)c1 | 0.0455 | Ki [2]: 0.00186 µM; Ki [3]: 0.0409 µM |
| C[C@H]1CO[C@@H](c2ccc(N)nc2)CN1CC1CC1CNC(=O)c1cc2ccccc2[nH]1 (stereo in doubt; form 1) | 0.182 | – |

| SMILES | Ratio Ki [1] | other results |
| --- | --- | --- |
| CCCN1CCO[C@@H]2c3cc(OCCCCOc4ccc5c(c4)NC(=O)CC5)ccc3OC[C@H]21 | 6.35 | – |
| CCCN1CC(c2ccc(N)nc2)OC[C@@H]1C (stereo partly specified) | 9.41 | Ratio Ki [4]: 1.58 |
| Oc1ccc2c(c1)[C@H]1OCCN[C@@H]1CO2 | 10.5 | – |
| CCCN1CCO[C@@H]2c3cc(OCCCCNC(=O)c4cc5ccccc5[nH]4)ccc3OC[C@H]21 | 6.3 | – |
| CC1=COC(c2ccc(N)nc2)CN1CC1CC1CCNC(=O)c1cc2ccccc2[nH]1 (stereo unspecified) | – | Drug metabolism [6]: Metabolite_Detected |
| C[C@H]1COC(c2ccc(N)nc2)CN1CCCCOc1ccc2c(c1)NC(=O)CC2 (stereo partly specified) | 0.653 | Ratio Ki [4]: 18.6 |
| C[C@H]1CO[C@@H](c2ccc(N)nc2)CN1CC1CC1CNC(=O)c1cc2ccccc2[nH]1 (stereo in doubt; form 3) | 0.498 | – |
| C[C@H]1CO[C@H](c2ccc(N)nc2)CN1CC1CC1CNC(=O)c1cc2ccccc2[nH]1 (mixture of isomers) [listing 2 of 2 here] | 0.213 | – |
| C[C@H]1COC(c2cnc(N)c(O)c2)CN1CC1CC1CCNC(=O)c1cc2ccccc2[nH]1 (stereo partly specified) | – | Drug metabolism [6]: Metabolite_Detected |
| O=C1CCc2ccc(OCCCCN3CCO[C@@H]4c5cc(O)ccc5OC[C@H]43)cc2N1 | 0.554 | – |
| C[C@H]1CO[C@@H](c2ccc(N)nc2)CN1CCCCOc1ccc2c(c1)NC(=O)CC2 | 1.11 | – |
| CCCN1CCO[C@@H]2c3cc(OCCCCN4C(=O)c5ccccc5C4=O)ccc3OC[C@H]21 | 2.11 | – |
| CCCN1CCO[C@@H]2c3cc(OCCCCNC(=O)c4nc5ccccc5s4)ccc3OC[C@H]21 | 4.14 | – |
| C[C@H]1CO[C@H](c2ccc(N)nc2)CN1 | 4.67 | – |
| C[C@H]1CO[C@H](c2ccc(N)nc2)CN1CCCCOc1ccc2c(c1)NC(=O)CC2 | 0.11 | – |
| C[C@H]1CO[C@@H](c2ccc(N)nc2)CN1CC1CC1CNC(=O)c1cc2ccccc2[nH]1 (stereo in doubt; form 4) | 0.435 | – |

From ChEMBL document CHEMBL4359839, “The Significance of Chirality in Drug Design and Synthesis of Bitopic Ligands as D3 Receptor (D3R) Selective Agonists” (J Med Chem, 2019)
